# Measurements as given in ChEMBL document CHEMBL3046389, “Synthesis and biological evaluation of novel hydroquinone dimethyl ethers as potential anticancer and antimicrobial agents” (2013).
# Tests used:
# Type in all cases: functional
# Escherichia coli = test: Antimicrobial activity against Escherichia coli ATCC 11775 after 48 hr by two-fold serial broth dilution method; conditions: ATCC 11775, 48 h
# Candida albicans = test: Antimicrobial activity against Candida albicans DSM 70014 after 48 hr by two-fold serial broth dilution method; conditions: DSM 70014, 48 h
# Pseudomonas aeruginosa [1] = test: Antimicrobial activity against Pseudomonas aeruginosa ATCC 10145 after 48 hr by two-fold serial broth dilution method; conditions: ATCC 10145, 48 h
# Bacillus subtilis = test: Antimicrobial activity against Bacillus subtilis ATCC 6633 after 48 hr by two-fold serial broth dilution method; conditions: ATCC 6633, 48 h
# Staphylococcus aureus [2] = test: Antimicrobial activity against Staphylococcus aureus DSM 1104 after 48 hr by two-fold serial broth dilution method; conditions: DSM 1104, 48 h
# Staphylococcus aureus [3] = test: Antimicrobial activity against Staphylococcus aureus DSM 1104 after 48 hr by two-fold serial broth dilution method relative to ampicillin
# Pseudomonas aeruginosa [4] = test: Ratio of ampicillin MIC to compound MIC for Pseudomonas aeruginosa ATCC 10145 after 48 hr by two-fold serial broth dilution method
# T47D = test: Growth inhibition of Homo sapiens (human) T47D cells at 10 uM after 48 hr by SRB assay; conditions: read-out: GI
# UO-31 = test: Growth inhibition of Homo sapiens (human) UO31 cells at 10 uM after 48 hr by SRB assay; conditions: UO-31, 48 h, read-out: GI
# ACHN = test: Growth inhibition of Homo sapiens (human) ACHN cells at 10 uM after 48 hr by SRB assay; conditions: read-out: GI
# PC-3 = test: Growth inhibition of Homo sapiens (human) PC3 cells at 10 uM after 48 hr by SRB assay; conditions: PC-3, 48 h, read-out: GI
# MDA-MB-468 = test: Growth inhibition of Homo sapiens (human) MDA-MB-468 cells at 10 uM after 48 hr by SRB assay; conditions: MDA-MB-468, 48 h, read-out: GI
# UACC-62 = test: Growth inhibition of Homo sapiens (human) UACC62 cells at 10 uM after 48 hr by SRB assay; conditions: UACC-62, 48 h, read-out: GI
# SK-MEL-5 = test: Growth inhibition of Homo sapiens (human) SK-MEL-5 cells at 10 uM after 48 hr by SRB assay; conditions: SK-MEL-5, 48 h, read-out: GI
# HCT-15 = test: Growth inhibition of Homo sapiens (human) HCT15 cells at 10 uM after 48 hr by SRB assay; conditions: HCT-15, 48 h, read-out: GI
# SR = test: Growth inhibition of Homo sapiens (human) SR cells at 10 uM after 48 hr by SRB assay; conditions: read-out: GI
# A549 = test: Growth inhibition of Homo sapiens (human) A549/ATCC cells at 10 uM after 48 hr by SRB assay; conditions: A549, 48 h, read-out: GI
# CAKI-1 = test: Growth inhibition of Homo sapiens (human) CAKI-1 cells at 10 uM after 48 hr by SRB assay; conditions: CAKI-1, 48 h, read-out: GI
# HL-60(TB) = test: Growth inhibition of Homo sapiens (human) HL-60(TB) cells at 10 uM after 48 hr by SRB assay; conditions: HL-60, 48 h, read-out: GI
# MCF7 = test: Growth inhibition of Homo sapiens (human) MCF7 cells at 10 uM after 48 hr by SRB assay; conditions: MCF7, 48 h, read-out: GI
# IGROV-1 = test: Growth inhibition of Homo sapiens (human) IGROV1 cells at 10 uM after 48 hr by SRB assay; conditions: IGROV-1, 48 h, read-out: GI
# HCT-116 = test: Growth inhibition of Homo sapiens (human) HCT116 cells at 10 uM after 48 hr by SRB assay; conditions: HCT-116, 48 h, read-out: GI
# EKVX = test: Growth inhibition of Homo sapiens (human) EKVX cells at 10 uM after 48 hr by SRB assay; conditions: read-out: GI
# K562 = test: Growth inhibition of Homo sapiens (human) K562 cells at 10 uM after 48 hr by SRB assay; conditions: K562, 48 h, read-out: GI
# M14 = test: Growth inhibition of Homo sapiens (human) M14 cells at 10 uM after 48 hr by SRB assay; conditions: M14, 48 h, read-out: GI
# NCI-H23 = test: Growth inhibition of Homo sapiens (human) NCI-H23 cells at 10 uM after 48 hr by SRB assay; conditions: NCI-H23, 48 h, read-out: GI
# Malme-3M = test: Growth inhibition of Homo sapiens (human) MALME-3M cells at 10 uM after 48 hr by SRB assay; conditions: read-out: GI
# RXF 393 = test: Growth inhibition of Homo sapiens (human) RXF393 cells at 10 uM after 48 hr by SRB assay; conditions: RXF 393, 48 h, read-out: GI
# MDA-MB-435 = test: Growth inhibition of Homo sapiens (human) MDA-MB-435 cells at 10 uM after 48 hr by SRB assay; conditions: MDA-MB-435, 48 h, read-out: GI
# SF-295 = test: Growth inhibition of Homo sapiens (human) SF295 cells at 10 uM after 48 hr by SRB assay; conditions: SF-295, 48 h, read-out: GI
# KM12 = test: Growth inhibition of Homo sapiens (human) KM12 cells at 10 uM after 48 hr by SRB assay; conditions: KM12, 48 h, read-out: GI
compound,measurement,setting,value
COc1ccc(OC)c(/C=C/C(=O)N/N=C/c2ccc([N+](=O)[O-])cc2)c1,MBC,Escherichia coli,50 µg/mL
same,MIC,Escherichia coli,50 µg/mL
same,MFC,Candida albicans,50 µg/mL
same,MIC,Candida albicans,50 µg/mL
same,MBC,Pseudomonas aeruginosa [1],50 µg/mL
same,MIC,Pseudomonas aeruginosa [1],50 µg/mL
same,MBC,Bacillus subtilis,50 µg/mL
same,MIC,Bacillus subtilis,50 µg/mL
same,MBC,Staphylococcus aureus [2],100 µg/mL
same,MIC,Staphylococcus aureus [2],100 µg/mL
COc1ccc(OC)c(/C=C/C2=NN(C(C)=O)C(c3ccccc3)O2)c1 (stereo not drawn),MBC,Escherichia coli,100 µg/mL
same,MIC,Escherichia coli,100 µg/mL
same,MFC,Candida albicans,50 µg/mL
same,MIC,Candida albicans,50 µg/mL
same,MBC,Pseudomonas aeruginosa [1],100 µg/mL
same,MIC,Pseudomonas aeruginosa [1],100 µg/mL
same,MBC,Bacillus subtilis,50 µg/mL
same,MIC,Bacillus subtilis,50 µg/mL
same,MBC,Staphylococcus aureus [2],50 µg/mL
same,MIC,Staphylococcus aureus [2],25 µg/mL
COc1ccc(OC)c(/C=C/C2=NN(C(C)=O)C(c3ccc(Cl)cc3)O2)c1 (stereo not drawn),MBC,Escherichia coli,50 µg/mL
same,MIC,Escherichia coli,25 µg/mL
same,MFC,Candida albicans,100 µg/mL
same,MIC,Candida albicans,50 µg/mL
same,MBC,Pseudomonas aeruginosa [1],50 µg/mL
same,MIC,Pseudomonas aeruginosa [1],25 µg/mL
same,MBC,Bacillus subtilis,50 µg/mL
same,MIC,Bacillus subtilis,50 µg/mL
same,MBC,Staphylococcus aureus [2],100 µg/mL
same,MIC,Staphylococcus aureus [2],100 µg/mL
COc1ccc(OC)c(/C=C/C2=NN(C(C)=O)C(c3ccc([N+](=O)[O-])cc3)O2)c1 (stereo not drawn),MBC,Escherichia coli,100 µg/mL
same,MIC,Escherichia coli,50 µg/mL
same,MFC,Candida albicans,100 µg/mL
same,MIC,Candida albicans,100 µg/mL
same,MBC,Pseudomonas aeruginosa [1],100 µg/mL
same,MIC,Pseudomonas aeruginosa [1],50 µg/mL
same,MBC,Bacillus subtilis,100 µg/mL
same,MIC,Bacillus subtilis,50 µg/mL
same,MBC,Staphylococcus aureus [2],100 µg/mL
same,MIC,Staphylococcus aureus [2],100 µg/mL
COc1ccc(OC)c(/C=C/c2nnc(S)n2-c2ccccc2)c1,MBC,Escherichia coli,50 µg/mL
same,MIC,Escherichia coli,25 µg/mL
same,MFC,Candida albicans,100 µg/mL
same,MIC,Candida albicans,100 µg/mL
same,MBC,Pseudomonas aeruginosa [1],100 µg/mL
same,MIC,Pseudomonas aeruginosa [1],100 µg/mL
same,MBC,Bacillus subtilis,50 µg/mL
same,MIC,Bacillus subtilis,50 µg/mL
same,MBC,Staphylococcus aureus [2],50 µg/mL
same,MIC,Staphylococcus aureus [2],50 µg/mL
COc1ccc(OC)c(/C=C/c2nnc(S)n2-c2ccc(C)cc2)c1,MBC,Escherichia coli,50 µg/mL
same,MIC,Escherichia coli,25 µg/mL
same,MFC,Candida albicans,50 µg/mL
same,MIC,Candida albicans,25 µg/mL
same,Activity,Staphylococcus aureus [3],40%
same,MBC,Pseudomonas aeruginosa [1],50 µg/mL
same,MIC,Pseudomonas aeruginosa [1],50 µg/mL
same,MBC,Bacillus subtilis,25 µg/mL
same,MIC,Bacillus subtilis,12.5 µg/mL
same,MBC,Staphylococcus aureus [2],25 µg/mL
same,MIC,Staphylococcus aureus [2],12.5 µg/mL
COc1ccc(OC)c(/C=C/c2nnc(SC)n2-c2ccccc2)c1,MBC,Escherichia coli,50 µg/mL
same,MIC,Escherichia coli,50 µg/mL
same,MFC,Candida albicans,50 µg/mL
same,MIC,Candida albicans,50 µg/mL
same,Ratio,Pseudomonas aeruginosa [4],2
same,inhibition of growth at 10 µM,T47D,41.8%
same,inhibition of growth at 10 µM,UO-31,44.5%
same,MBC,Pseudomonas aeruginosa [1],50 µg/mL
same,MIC,Pseudomonas aeruginosa [1],25 µg/mL
same,MBC,Bacillus subtilis,50 µg/mL
same,MIC,Bacillus subtilis,50 µg/mL
same,MBC,Staphylococcus aureus [2],50 µg/mL
same,MIC,Staphylococcus aureus [2],50 µg/mL
CCSc1nnc(/C=C/c2cc(OC)ccc2OC)n1-c1ccccc1,MBC,Escherichia coli,100 µg/mL
same,MIC,Escherichia coli,100 µg/mL
same,MFC,Candida albicans,50 µg/mL
same,MIC,Candida albicans,50 µg/mL
same,MBC,Pseudomonas aeruginosa [1],100 µg/mL
same,MIC,Pseudomonas aeruginosa [1],100 µg/mL
same,MBC,Bacillus subtilis,100 µg/mL
same,MIC,Bacillus subtilis,100 µg/mL
same,MBC,Staphylococcus aureus [2],100 µg/mL
same,MIC,Staphylococcus aureus [2],100 µg/mL
COc1ccc(OC)c(/C=C/c2nnc(SC)n2-c2ccc(Cl)cc2)c1,inhibition of growth at 10 µM,ACHN,32.1%
same,inhibition of growth at 10 µM,PC-3,61.1%
same,inhibition of growth at 10 µM,MDA-MB-468,74.8%
same,inhibition of growth at 10 µM,UACC-62,50.5%
same,inhibition of growth at 10 µM,SK-MEL-5,46.6%
same,MBC,Escherichia coli,100 µg/mL
same,MIC,Escherichia coli,100 µg/mL
same,MFC,Candida albicans,100 µg/mL
same,MIC,Candida albicans,50 µg/mL
same,inhibition of growth at 10 µM,T47D,57.2%
same,inhibition of growth at 10 µM,HCT-15,41.1%
same,inhibition of growth at 10 µM,SR,58.5%
same,inhibition of growth at 10 µM,A549,35.2%
same,inhibition of growth at 10 µM,CAKI-1,35.5%
same,inhibition of growth at 10 µM,HL-60(TB),34.3%
same,inhibition of growth at 10 µM,MCF7,53.3%
same,inhibition of growth at 10 µM,IGROV-1,38.2%
same,inhibition of growth at 10 µM,HCT-116,40.2%
same,inhibition of growth at 10 µM,EKVX,38.6%
same,inhibition of growth at 10 µM,K562,69.3%
same,inhibition of growth at 10 µM,UO-31,60.4%
same,MBC,Pseudomonas aeruginosa [1],50 µg/mL
same,MIC,Pseudomonas aeruginosa [1],50 µg/mL
same,inhibition of growth at 10 µM,M14,40%
same,inhibition of growth at 10 µM,NCI-H23,40.3%
same,inhibition of growth at 10 µM,Malme-3M,55.2%
same,inhibition of growth at 10 µM,RXF 393,40.3%
same,MBC,Bacillus subtilis,100 µg/mL
same,MIC,Bacillus subtilis,100 µg/mL
same,inhibition of growth at 10 µM,MDA-MB-435,91.3%
same,inhibition of growth at 10 µM,SF-295,53.2%
same,MBC,Staphylococcus aureus [2],100 µg/mL
same,MIC,Staphylococcus aureus [2],100 µg/mL
same,inhibition of growth at 10 µM,KM12,46.9%
CCSc1nnc(/C=C/c2cc(OC)ccc2OC)n1-c1ccc(Cl)cc1,MBC,Escherichia coli,50 µg/mL
same,MIC,Escherichia coli,50 µg/mL
same,MFC,Candida albicans,50 µg/mL
same,MIC,Candida albicans,50 µg/mL
same,MBC,Pseudomonas aeruginosa [1],50 µg/mL
same,MIC,Pseudomonas aeruginosa [1],50 µg/mL
same,MBC,Bacillus subtilis,100 µg/mL
same,MIC,Bacillus subtilis,50 µg/mL
same,MBC,Staphylococcus aureus [2],100 µg/mL
same,MIC,Staphylococcus aureus [2],100 µg/mL
